Results from patent US11013730B1, “Composition comprising selenazol or thiazalone derivatives and silver and method of treatment therewith” (Thioredoxin Systems AB, priority 2014, dated 2021).
≈ marks a conversion by molar mass, not a printed value. Read-outs that look alike come from different tables or passages of the source.

Legend:
[1] = biological target: T1, Mammalian TrxR (Homo sapiens, UniProt Q16881); test: Kinetic parameters with mammalian TrxR; format: biochemical; details: sulphur analogues
T1 sequence (Q16881 151-649 limits assumed): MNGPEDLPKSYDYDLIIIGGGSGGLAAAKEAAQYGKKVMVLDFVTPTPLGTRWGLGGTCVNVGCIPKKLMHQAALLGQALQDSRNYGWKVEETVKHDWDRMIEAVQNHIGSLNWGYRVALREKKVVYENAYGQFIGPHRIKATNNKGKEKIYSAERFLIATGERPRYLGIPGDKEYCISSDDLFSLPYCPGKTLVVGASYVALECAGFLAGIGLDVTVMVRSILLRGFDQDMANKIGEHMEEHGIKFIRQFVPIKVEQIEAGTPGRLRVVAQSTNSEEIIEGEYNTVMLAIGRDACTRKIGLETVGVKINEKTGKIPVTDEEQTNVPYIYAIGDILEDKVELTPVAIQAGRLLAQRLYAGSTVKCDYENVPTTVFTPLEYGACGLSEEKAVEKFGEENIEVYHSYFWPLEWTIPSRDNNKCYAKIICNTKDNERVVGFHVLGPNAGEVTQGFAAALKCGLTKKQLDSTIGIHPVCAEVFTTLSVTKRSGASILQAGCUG

[2] = biological target: T2, E. coli TrxR (Escherichia coli, UniProt P0A9P4); test: Kinetic parameters (substrate) with E. coli TrxR; format: biochemical
[3] = biological target: T2, E. coli TrxR; test: E. coli TrxR inhibition, thioredoxin dependent DTNB reduction assay; format: biochemical
Experimental: Further we examined the effect of ebselen in the reduction of disulfide by E. coli Trx and TrxR using both DTNB and insulin as substrates.
All the benzisoselenazol-3(2H)-one and bisbenzisoselenazol-3(2H)-one derivatives were tested as potential E. coli TrxR inhibitors by standard DTNB assay. […] The reactions were started by adding 1 mM DTNB to the mixture of 100 nM TrxR, 2 μM Trx, 240 μM NADPH, and different concentration of inhibitor (1-40 μM). […] The reactions were started by adding 6 nM TrxR at room temperature. Inhibition constants (Ki) for all the compounds were measured from Dixon plot, which plots 1/v versus […], I=Inhibitor concentration).

[4] = test system: HEK 293T cells; test: HEK 293T cells growth (cytotoxicity); format: cell-based
[5] = biological target: T3, recombinant rat TrxR (Rattus norvegicus, UniProt O89049); test: Inhibition of mammalian (recombinant rat) TrxR
T3 sequence (O89049 1-499): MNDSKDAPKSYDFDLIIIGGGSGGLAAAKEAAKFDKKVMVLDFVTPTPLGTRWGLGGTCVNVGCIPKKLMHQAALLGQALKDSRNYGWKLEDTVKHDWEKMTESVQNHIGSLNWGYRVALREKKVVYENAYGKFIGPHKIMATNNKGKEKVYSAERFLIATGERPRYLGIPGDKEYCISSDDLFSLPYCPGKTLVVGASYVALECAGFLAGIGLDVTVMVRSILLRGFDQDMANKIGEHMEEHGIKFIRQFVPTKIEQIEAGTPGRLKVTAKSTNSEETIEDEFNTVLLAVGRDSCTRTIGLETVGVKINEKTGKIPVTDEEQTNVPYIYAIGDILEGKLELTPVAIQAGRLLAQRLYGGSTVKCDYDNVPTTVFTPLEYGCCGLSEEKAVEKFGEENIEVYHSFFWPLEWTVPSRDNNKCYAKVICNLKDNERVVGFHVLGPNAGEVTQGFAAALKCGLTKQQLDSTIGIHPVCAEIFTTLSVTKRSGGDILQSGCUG

[6] = Glutathione peroxidase (GPx) activity of the compounds; format: biochemical; details: for Relative GPx activity: EbSe 6 = 1
[7] = test system: gshA^− DHB4 E. coli; test: Inhibition of bacterial growth (MIC), gshA^− DHB4 E. coli; details: for MIC: Escherichia coli, read-out: MIC for gshA^− DHB4 E. coli; for sensitivity of gshA^− / gor^− strains compared with wild type: E. coli strains wt
Excerpt: (§1) Here E. coli DHB4 strains wt, gshA^−, gor^−, oxyR^− were used as the model to test the antibiotics activity of these ebselen derivatives.

[8] = test system: wild type DHB4 E. coli; test: Inhibition of bacterial growth (MIC), wild type DHB4 E. coli; details: for MIC: Escherichia coli, DHB4E.COLI, read-out: MIC for wild type DHB4 E. coli
Excerpt: as §1

[9] = test system: Gor DHB4 E. coli; test: Inhibition of bacterial growth (MIC), Gor DHB4 E. coli; details: for MIC: Escherichia coli, DHB4E.COLI, read-out: MIC for Gor DHB4 E. coli
Excerpt: as §1

[10] = test system: H. pylori strains; test: MIC against H. pylori strains; details: Helicobacter pylori
[11] = test system: E. coli; format: cell-based, Escherichia coli; details: 16 h
[12] = DTNB assay, 100 nM TrxR, 2 μM Trx, 240 μM NADPH, 1 mM DTNB, read-out: IC50 for E. coli TrxR
[13] = Dixon plot, 6 nM TrxR, Trx 1, 2 or 4 μM, read-out: Ki for E. coli TrxR
[14] = Homo sapiens, HEK-293T; read-out: IG50 for HEK 293T
[15] = Dixon plot, 6 nM TrxR, Trx 1, 2 or 4 μM
[16] = Homo sapiens, HEK-293T, read-out: IG50 for HEK 293T

T2 sequence (P0A9P4 whole entry): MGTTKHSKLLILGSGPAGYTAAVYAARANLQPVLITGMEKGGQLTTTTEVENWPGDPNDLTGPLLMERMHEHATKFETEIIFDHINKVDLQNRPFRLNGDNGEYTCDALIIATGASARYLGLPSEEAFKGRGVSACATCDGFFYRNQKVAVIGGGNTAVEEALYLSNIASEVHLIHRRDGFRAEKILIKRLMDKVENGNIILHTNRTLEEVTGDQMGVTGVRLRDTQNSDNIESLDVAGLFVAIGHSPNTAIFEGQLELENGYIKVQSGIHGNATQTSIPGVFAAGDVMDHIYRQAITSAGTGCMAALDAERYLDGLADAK

| Structure (SMILES) | IC50 [3, 12] [µM] | Ki [3, 13] [nM] | IC50 [4, 14] [µM] | IC50 [5] [µM] | Relative GPx activity [6] | MIC [7] [µM] | MIC [8] [µM] | MIC [9] [µM] | further results |
| --- | --- | --- | --- | --- | --- | --- | --- | --- | --- |
| O=C(Nc1ccccc1)c1ccccc1SSc1ccccc1C(=O)Nc1ccccc1 [(EbS)2] |  |  |  |  |  |  |  |  | Km [1]: 47 µM; kcat, mammalian TrxR [1]: 1500 min⁻¹; Km [2]: 27.6 µM; kcat, E. coli TrxR [2]: 100 min⁻¹ |
| NCCn1[se]c2ccccc2c1=O [EbSe5] | 2.12 | 35 |  |  |  |  |  |  |  |
| O=c1c2cccnc2[se]n1-c1ccc(Cl)cc1 [EbSe19] | 3 | 500 |  |  |  |  |  |  |  |
| O=c1[nH][se]c2ccccc12 [EbSe 2] | 15 | 1000 | 95 | > 10 | 0.97 |  |  |  | Ki for E. coli TrxR [3, 15]: Not detected |
| Cn1[se]c2ccccc2c1=O [EbSe 3] | 15 |  | 100 | > 10 | 1.2 |  |  |  | Ki for E. coli TrxR [3, 15]: Not detected |
| CC(C)(C)n1[se]c2ccccc2c1=O [EbSe 4] | 15 |  | 75 | > 10 | 1.1 |  |  |  | inhibition of mammalian TrxR (in words) [5]: some activity; Ki for E. coli TrxR [3, 15]: Not detected |
| O=c1c2ccccc2[se]n1-c1ccc(Cl)cc1 [EbSe 7] | 7 | 550 | 120 | > 10 | 0.64 | 20 (≈ 6.17 µg/mL) | 34 (≈ 10.5 µg/mL) | 23 (≈ 7.1 µg/mL) |  |
| Cc1cc(Cl)ccc1-n1[se]c2ccccc2c1=O [EbSe 8] | 6 | 250 | 80 | > 10 | 0.67 | 13 (≈ 4.19 µg/mL) | 47 (≈ 15.2 µg/mL) | 24 (≈ 7.74 µg/mL) |  |
| O=C(O)c1ccccc1-n1[se]c2ccccc2c1=O [EbSe 9] | 7.5 | 1200 | > 160 | 0.8 | 2.1 | 24 (≈ 7.64 µg/mL) | 49 (≈ 15.6 µg/mL) | 31 (≈ 9.86 µg/mL) |  |
| O=C(O)c1ccc(-n2[se]c3ccccc3c2=O)cc1 [EbSe 10] | 15 |  | 55 | > 10 | 1.8 |  |  |  | Ki for E. coli TrxR [3, 15]: Not detected |
| O=c1c2ccccc2[se]n1-c1ccc(Cl)cc1 [EbSe 11] |  |  |  |  | 0.87 |  |  |  | IC50 ([4]; read-out: IG50 for HEK 293T): > 160 µM; MIC for gshA^− DHB4 E. coli [7]: No Inhibition; MIC for wild type DHB4 E. coli [8]: No Inhibition; IC50 [3]: > 40 µM; Ki [3]: 300 nM; Ki for E. coli TrxR [3, 15]: Not detected; MIC for Gor DHB4 E. coli [9]: No Inhibition |
| O=c1c2ccccc2[se]n1-c1ccccc1[N+](=O)[O-] [EbSe 12] | 3 | 250 |  | > 10 | 0.93 |  |  |  | IC50 [4, 16]: 80 µM; GPx activity (in words) [6]: no GPx activity; MIC for gshA^− DHB4 E. coli [7]: No Inhibition; sensitivity of gshA^− / gor^− strains compared with wild type [7]: same sensitivity; MIC for wild type DHB4 E. coli [8]: No Inhibition; MIC for Gor DHB4 E. coli [9]: No Inhibition |
| O=c1c2ccccc2[se]n1-c1ccncc1 [EbSe 13] | 3 | 1500 | 60 | > 10 | 1.4 | 21 (≈ 5.78 µg/mL) | 45 (≈ 12.4 µg/mL) | 24 (≈ 6.6 µg/mL) |  |
| O=c1c2ccccc2[se]n1CCn1[se]c2ccccc2c1=O [EbSe 14] | 2 | 50 |  |  |  | 23 (≈ 9.71 µg/mL) | 23 (≈ 9.71 µg/mL) | 19 (≈ 8.02 µg/mL) | sensitivity of gshA^− / gor^− strains compared with wild type [7]: same sensitivity |
| O=c1c2ccccc2[se]n1CCCn1[se]c2ccccc2c1=O [EbSe 15] | 2.1 |  | 9.5 |  |  |  |  |  | Ki [3]: 38 nM |
| O=c1c2ccccc2[se]n1CCCCCCn1[se]c2ccccc2c1=O [EbSe 16] | 2.25 | 25 |  |  |  | 20 (≈ 9.57 µg/mL) | 20 (≈ 9.57 µg/mL) | 35 (≈ 16.7 µg/mL) | IC50 [4, 16]: 9.2 µM; sensitivity of gshA^− / gor^− strains compared with wild type [7]: same sensitivity; Ki ([3]; for the selenium released stock, read-out: Ki for E. coli TrxR, selenium released stock): 10 nM |
| CCOC(=O)c1cccnc1[Se]Nc1ccc(Cl)cc1 [EbSe 22] | > 10 | 7500 |  |  |  |  |  |  |  |
| CCOC(=O)c1cccnc1[Se]Nc1ccc(Cl)cn1 [compound 2] | > 10 | 7500 |  |  |  |  |  |  | IC50 [4, 16]: 60 µM; MIC for gshA^− DHB4 E. coli [7]: No Inhibition; MIC for wild type DHB4 E. coli [8]: No Inhibition; MIC for Gor DHB4 E. coli [9]: No Inhibition |
| Cc1ncc([N+](=O)[O-])n1CCO [metronidazole] |  |  |  |  |  |  |  |  | MIC [10]: 6.25 µg/mL (≈ 36.5 µM); MIC ([10]; NCTC11637): 0.78 µg/mL (≈ 4.56 µM) |
| O=[N+]([O-])[O-].[Ag+] [silver, Silver nitrate] |  |  |  |  |  |  |  |  | MIC, silver alone [11]: about 42 μM; MIC for silver ([11]; in the presence of 2 μM ebselen): 8.4 µM; silver concentration that inhibited E. coli growth ([11]; in the presence of 8 μM ebselen): 1 µM |
